Experiment: xn = mol fraction of the nth substance listed
Details: Liquid; for viscosity: Concentric cylinders viscometry

CCCC[n+]1ccn(C)c1.O=S(=O)([N-]S(=O)(=O)C(F)(F)F)C(F)(F)F + CCCCn1cc[n+](C)c1.[Cl-]
viscosity [mPa·s], 100 kPa
Details | 293.15 K | 303.15 K | 313.15 K | 323.15 K
x2 = 0 | 63.41 | 41.26 | 28.46 | 20.58
x2 = 0.25 | 150.8 | 89.81 | 57.25 | 38.43
x2 = 0.5 | 489.6 | 255.5 | 144.8 | 87.69
x2 = 0.75 | – | 1095 | 513 | 265.5

mass density [kg/m3]
Details | x2 = 0 | x2 = 0.25 | x2 = 0.5 | x2 = 0.75
293.15 K, 100 kPa, Vibrating tube method | 1440.9 | 1383.3 | 1310.1 | –
303.15 K, 100 kPa, Vibrating tube method | 1431.6 | 1374.4 | 1301.8 | 1207.9
312.3 K, 10000 kPa, Bellows volumetry | – | 1373.1 | 1300.2 | 1205.8
312.3 K, 20000 kPa, Bellows volumetry | – | 1379.8 | 1306.1 | 1210.5
312.3 K, 30000 kPa, Bellows volumetry | – | 1386 | 1311.7 | 1215
312.3 K, 40000 kPa, Bellows volumetry | – | 1392 | 1317 | 1219.3
312.3 K, 50000 kPa, Bellows volumetry | – | 1397.7 | 1322.1 | 1223.6
312.3 K, 60000 kPa, Bellows volumetry | – | 1403.3 | 1326.9 | 1227.7
312.3 K, 70000 kPa, Bellows volumetry | – | 1408.6 | 1331.6 | 1231.6
312.3 K, 80000 kPa, Bellows volumetry | – | 1413.7 | 1336.2 | 1235.5
312.3 K, 90000 kPa, Bellows volumetry | – | 1418.5 | 1340.5 | 1239.2
312.3 K, 100000 kPa, Bellows volumetry | – | 1423.4 | 1344.8 | 1242.8
312.3 K, 110000 kPa, Bellows volumetry | – | 1428.1 | 1349.1 | 1246.4
312.3 K, 120000 kPa, Bellows volumetry | – | 1432.6 | 1353.1 | 1249.9
312.3 K, 130000 kPa, Bellows volumetry | – | 1437.1 | 1357.1 | 1253.3
312.3 K, 140000 kPa, Bellows volumetry | – | 1441.3 | 1360.9 | 1256.6
312.3 K, 150000 kPa, Bellows volumetry | – | 1445.6 | 1364.7 | 1260
312.3 K, 160000 kPa, Bellows volumetry | – | 1449.7 | 1368.4 | 1263.1
312.3 K, 170000 kPa, Bellows volumetry | – | 1453.8 | 1372.2 | 1266.3
312.3 K, 180000 kPa, Bellows volumetry | – | 1457.7 | 1375.8 | 1269.4
312.3 K, 190000 kPa, Bellows volumetry | – | 1461.7 | 1379.3 | 1272.4
312.3 K, 200000 kPa, Bellows volumetry | – | 1465.4 | 1382.7 | 1275.5
313.15 K, 100 kPa, Vibrating tube method | 1422.1 | 1365.6 | 1293.9 | 1200.6
323.15 K, 100 kPa, Vibrating tube method | 1412.6 | 1356.8 | 1286 | 1193.6
331.8 K, 10000 kPa, Bellows volumetry | – | 1356.2 | 1285.2 | –

From the NIST ThermoML archive (doi:10.1016/j.jct.2016.12.037)
